The subject of data set [1] is fibrin- and LPS-induced microglia activation. The data set is described as follows: cells. Particulars: for inhibition at 10 µM: Rattus norvegicus. The data set is classed as cell-based, rat.
Data set [2] can be described thus: in vitro. Conditions: rat, Cell Toxicity IC50 (uM) [cFib assay].
Data set [3] relates to fibrin-induced microglia activation. The data set is described as follows: Image-based assay of fibrin-induced microglia activation (HTS and dose response). The data set is classed as cell-based, rat. Conditions: for pIC50 / IC50 / inhibition at 10 µM: Rattus norvegicus, Microglia; for pIC50: read-out: Fibrin IC50; for IC50: read-out: Fibrin IC50 (uM) (Suppl. Table 7); for inhibition at 10 µM: primary microglia HTS, fibrin stimulation, increased cell size (>800 μm^2) as marker of activation, read-out: Fibrin % inhibition.

A short description of data set [4]: in vitro. Conditions: rat.
Data set [5] relates to LPS-induced microglia activation. The data set is described as follows: Image-based assay of LPS-induced microglia activation (HTS and dose response). The data set is classed as cell-based, rat. Particulars: Rattus norvegicus, Microglia; for pIC50: read-out: LPS IC50; for inhibition at 10 µM: primary microglia HTS, LPS stimulation, increased cell size (>800 μm^2) as marker of activation, read-out: LPS % inhibition; for IC50: read-out: LPS IC50 (uM) (Suppl. Table 7).

In data set [6] the test system is primary rat microglia. The data set is described as follows: Cell toxicity (dead cells, size <150 μm2) in LPS assay. Particulars: for LPS % cell toxicity: primary microglia HTS, LPS stimulation, decreased size (<150 μm^2) as marker of toxicity; for IC50: read-out: Cell Toxicity IC50 (uM) [LPS assay], LPS assay.
The test system of data set [7] is primary rat microglia. The data set is described as follows: Cell toxicity (dead cells, size <150 μm2) in coated fibrin (cFib) assay.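 On Fibrin % cell toxicity: share of dead cells sized under 150 µm2 at 10 µM in fibrin-stimulated microglia HTS.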 Particulars: primary microglia HTS, fibrin stimulation; decreased size (<150 μm^2) as marker of toxicity.
[8] abbreviates: HTS of 1907 compounds, quadrant by fibrin and LPS inhibition.
The mark [9] stands for this setting: Microglia, Table 3, read-out: Cherry-picked Hit (Suppl. Table 7).
[10] abbreviates: Microglia, HTS hit classification, read-out: Hit.
Where [11] appears, read: quadrant by fibrin and LPS inhibition in HTS of 1907 compounds.
The mark [12] stands for this setting: 48 h, Table 1, dose response 0.001-20 μM, triplicates, primary rat microglia, 48 h.
Setting [13] is: dose response, fibrin-induced microglia activation.
The mark [14] stands for this setting: fibrin-induced microglia activation, dose response.
[15] abbreviates: LPS-induced microglia activation, dose response.
Setting [16] is: dose response, LPS-induced microglia activation.
Setting [17] is: listed as Medroxyprogesterone Ac.
[18] abbreviates: hit classification in microglia HTS, read-out: Cherry-picked Hit (Suppl. Table 7).

Each structure is given as a SMILES string. pIC50: −log10 of the molar value. Values joined by “and” are separate entries in the source; they are usually repeats but may differ in a detail not shown here. Identical values can stand only once. Counter-ions that a name gives are not always drawn. Like-named read-outs stand apart in the source and are kept apart here.

In general, IC50 refers to the concentration needed to halve the response being measured. Broadly, the pIC50 is the IC50 on a negative log10 scale, so that one unit is a factor of ten. Consider `C[C@H](N)[C@H](O)c1ccc(O)c(O)c1` [Levonordefrin, reference compound], for which the “Quadrant (FIG. 5b)” value in data set [1] (setting [8]) is recorded as “Q3”; in data set [1] (Table 1, screen at 10 μM), “Q3”; in data set [1] (Table 3, screen at 10 μM), “Q3”; in data set [1] (setting [11]), “Q3”. Besides, the inhibition at 10 µM in data set [1] (setting [9]) was more than 50%; in data set [1] (setting [10]) it was more than 50%; in data set [3] it was 70%; in data set [5] (48 h), 36%. For the same compound, the IC50 is more than 20 µM in the data set “in vitro [2]” (Table 3); more than 20 µM in “in vitro [2]” (cFib assay); 0.9 µM in data set [3] (Table 3); 0.9 µM in data set [3] (setting [14]); more than 20 µM in data set [5] (setting [15]); more than 20 µM in data set [5] (Table 3). Moreover, in the data set with primary rat microglia [6], the IC50 is more than 20 µM. Also, in data set [3], the “Fibrin Selectivity” value is on record as 21. The “Fibrin Selectivity (LOG10)” value in data set [3] is given as 1.33. Besides, the pIC50 was 6.05 in data set [3] (setting [12]); 6.05 in data set [3] (setting [13]); less than 4.70 in the data set “in vitro [4]”; less than 4.70 in data set [5] (setting [12]); less than 4.70 in data set [5] (setting [16]). The “LPS % cell toxicity” value in the data set on primary rat microglia [6] is reported as 0%. Also, the “Fibrin % cell toxicity” value with primary rat microglia [7] amounted to 1%.

As for `CC(=O)O[C@]1(C(C)=O)CC[C@H]2[C@@H]3C[C@H](C)C4=CC(=O)CC[C@]4(C)[C@H]3CC[C@@]21C` [Medroxyprogesterone acetate, reference compound], the “Quadrant (FIG. 5b)” value in data set [1] (setting [8]) is “Q2”; in data set [1] (Table 1, screen at 10 μM) it was “Q2”; in data set [1] (Table 3, screen at 10 μM), “Q2”; in data set [1] (microglia HTS, Table 6), “Q2”; in data set [1] (setting [11]), “Q2”. The inhibition at 10 µM in data set [1] (setting [9]) was more than 50%; in data set [1] (setting [10]), more than 50%; in data set [3], 72%; in data set [5] (48 h), 56%. Further, the IC50 in “in vitro [2]” (Table 3) was more than 20 µM; in “in vitro [2]” (cFib assay) it was more than 20 µM; in the data set “in vitro [2]” (cFib assay, Table 6), more than 20 µM; in data set [3] (Table 3) it was 0.3 µM; in data set [3] (Table 6) it was 0.3 µM; in data set [3] (setting [14]) it was 0.3 µM. Moreover, the IC50 (in data set [5] (setting [15]); in data set [5] (Table 3); in data set [5] (Table 6); with primary rat microglia [6]; in the data set with primary rat microglia [6] (Table 6)) was more than 20 µM throughout. In addition, the negative logarithm of the IC50 (pIC50) was 6.52 in data set [3] (setting [12]); 6.30 in data set [3] (setting [13]); less than 4.70 in the data set “in vitro [4]”; less than 4.70 in data set [5] (setting [12]); less than 4.70 in data set [5] (setting [16]). Further, the “Fibrin Selectivity (LOG10)” value in data set [3] (fibrin vs LPS, LOG10, Table 6) is 1.84 and 1.61; in data set [3] (setting [17]) it was 1.84 and 1.61. Moreover, the “Fibrin Selectivity” value is 70 and 41 in data set [3] (fibrin vs LPS, Table 6); 70 and 41 in data set [3] (setting [17]); 70 and 41 in data set [3] (listed as Medroxyprogesterone Acetate). Further, in the data set with primary rat microglia [6], the “LPS % cell toxicity” value amounted to 1%. Further, in the data set on primary rat microglia [7], the “Fibrin % cell toxicity” value was 1%.

In the case of `C=C1C[C@H]2[C@@H]3C=C(C)C4=CC(=O)CC[C@]4(C)[C@H]3CC[C@]2(C)[C@@]1(OC(C)=O)C(C)=O` [Melengestrol acetate, reference compound], the “Quadrant (FIG. 5b)” value in data set [1] (setting [8]) was “Q2”; in data set [1] (Table 1, screen at 10 μM), “Q2”; in data set [1] (Table 3, screen at 10 μM), “Q2”; in data set [1] (microglia HTS, Table 6), “Q2”; in data set [1] (setting [11]) it was “Q2”. The inhibition at 10 µM in data set [1] (setting [9]) was more than 50%; in data set [1] (setting [10]) it was more than 50%; in data set [3] it was 86%; in data set [5] (48 h), 67%. Moreover, the IC50 in “in vitro [2]” (Table 3) was more than 20 µM; in “in vitro [2]” (cFib assay) it was more than 20 µM; in “in vitro [2]” (cFib assay, Table 6), more than 20 µM; in data set [3] (Table 3), 0.07 µM; in data set [3] (Table 6), 0.07 µM; in data set [3] (setting [14]) it was 0.07 µM. The IC50 was 13 µM in data set [5] (setting [15]); 13 µM in data set [5] (Table 3); 13 µM in data set [5] (Table 6); more than 20 µM in the data set on primary rat microglia [6]; more than 20 µM in the data set on primary rat microglia [6] (Table 6). Besides, the “Fibrin Selectivity” value in data set [3] was 196; in data set [3] (fibrin vs LPS, Table 6), 196. The “Fibrin Selectivity (LOG10)” value worked out at 2.29 in data set [3] and 2.29 in data set [3] (fibrin vs LPS, LOG10, Table 6). Further, the negative logarithm of the IC50 (pIC50) in data set [3] (setting [12]) is 7.15; in data set [3] (setting [13]), 7.15; in the data set “in vitro [4]” it was less than 4.70; in data set [5] (setting [12]), 4.89; in data set [5] (setting [16]), 4.89. The “LPS % cell toxicity” value with primary rat microglia [6] is reported as 2%. In the data set with primary rat microglia [7], the “Fibrin % cell toxicity” value turned out to be 2%.

Turning to `CNC(C)(C)Cc1ccccc1` [Mephentermine sulfate, reference compound], the “Quadrant (FIG. 5b)” value in data set [1] (setting [8]) is given as “Q3”; in data set [1] (Table 1, screen at 10 μM) it was “Q3”; in data set [1] (setting [11]) it was “Q3”. The inhibition at 10 µM in data set [1] (setting [10]) is more than 50%; in data set [1] (setting [18]), more than 50%; in data set [3] it was 60%; in data set [5] (48 h), 31%. The IC50 (in “in vitro [2]” (cFib assay); in data set [3] (setting [14]); in data set [5] (setting [15])) was more than 20 µM in each case. For the same compound, the pIC50 (in data set [3] (setting [12]); in data set [3] (setting [13]); in “in vitro [4]”; in data set [5] (setting [12]); in data set [5] (setting [16])) was less than 4.70 each time. Besides, the “LPS % cell toxicity” value in the data set on primary rat microglia [6] worked out at 1%. Besides, in the data set on primary rat microglia [7], the “Fibrin % cell toxicity” value is 2%.

On to `C=N[C@@H](C(=O)N[C@@H]1C(=O)N2[C@@H]1SC(C)(C)[C@@H]2C(=O)O)c1ccccc1` [Metampicillin sodium, reference compound], for which the “Quadrant (FIG. 5b)” value was “Q3” in data set [1] (setting [8]); “Q3” in data set [1] (Table 1, screen at 10 μM); “Q3” in data set [1] (setting [11]). In addition, the inhibition at 10 µM is more than 50% in data set [1] (setting [10]), more than 50% in data set [1] (setting [18]), 68% in data set [3] and 35% in data set [5] (48 h). Besides, the values for the IC50 (in “in vitro [2]” (cFib assay); in data set [3] (setting [14]); in data set [5] (setting [15])) were more than 20 µM, 20 µM and more than 20 µM, respectively. Moreover, the pIC50 in data set [3] (setting [12]) is 4.70; in data set [3] (setting [13]) it was 4.70; in “in vitro [4]” it was less than 4.70; in data set [5] (setting [12]) it was less than 4.70; in data set [5] (setting [16]), less than 4.70. In addition, the “LPS % cell toxicity” value in the data set on primary rat microglia [6] is 0%. Moreover, in the data set with primary rat microglia [7], the “Fibrin % cell toxicity” value is 1%.

Turning to `CN1CCN2c3ncccc3Cc3ccccc3C2C1` (stereo not drawn) [Mirtazapine, reference compound], the “Quadrant (FIG. 5b)” value in data set [1] (setting [8]) is given as “Q3”; in data set [1] (Table 1, screen at 10 μM), “Q3”; in data set [1] (setting [11]) it was “Q3”. The inhibition at 10 µM in data set [1] (setting [10]) is more than 50%; in data set [1] (setting [18]) it was more than 50%; in data set [3], 57%; in data set [5] (48 h) it was 36%. Also, the IC50 (in the data set “in vitro [2]” (cFib assay); in data set [3] (setting [14]); in data set [5] (setting [15])) was more than 20 µM each time. Besides, the pIC50 (in data set [3] (setting [12]); in data set [3] (setting [13]); in “in vitro [4]”; in data set [5] (setting [12]); in data set [5] (setting [16])) was less than 4.70 each time. Also, the “LPS % cell toxicity” value with primary rat microglia [6] is 1%. Besides, the “Fibrin % cell toxicity” value in the data set on primary rat microglia [7] is recorded as 2%.

Values taken from patent US20210330611A1, “THERAPY FOR NEUROLOGICAL DISEASES/DISORDERS” (priority 2020, published 2021).
